Consider one compound from US11426465B2, “Hydrazinyl-indole compounds and methods for producing a conjugate” (Redwood Bioscience, Inc., priority 2012, dated 2022).

The pKa is the negative logarithm of the acid dissociation constant.

Series [1] is described as follows: HPLC kinetics assay: condensation of model amines with benzyloxyacetaldehyde. Particulars: 50 μM amine and aldehyde, room temperature, 2 h, above pH 6. Here is the method:
Experimental Protocol for HPLC Kinetics Assay: Reaction mixtures contained amine 4, 6, 7, or 8 (50 μM), benzyloxyacetaldehyde (50 μM), bromocresol green (10 μM), and buffer (10 mM) in a 120 μL aqueous solution containing 6.7% MeCN, which was present to solubilize the stock solution (1 mM) of benzyloxyacetaldehyde. After 2 h at room temperature, a 100 μL aliquot was analyzed by HPLC, employing a gradient of 10 to 100% acetonitrile in water over 18 min.
As described above, buffered solutions containing 50 μM amine and aldehyde were incubated at room temperature for 2 h prior to analysis by HPLC.

The conditions of series [2]: basic moiety of the compound (trialkylhydrazine / O-alkylaminooxy); cited from earlier work.

Take `CNN(C)Cc1cc2ccccc2n1CCC(=O)O` [Compound 4, Piperidinium 3-(2-((1,2-dimethylhydrazinyl)methyl)-1H-indol-1-yl)propanoate]: in series [1], the “% conversion to product” value was “higher % conversion to product than the other amine nucleophiles”. Also, the pKa in series [2] is reported as roughly 6.56.
